# Results reported in patent publication US20250388605A1, “HETEROBIFUNCTIONAL COMPOUNDS AND METHODS OF TREATING DISEASE” (Halda Therapeutics OpCo, Inc., priority 2022, published 2025).
# Tested on: VCaP cells
# Assay: Cellular growth inhibition assay for VCaP cells, CellTiter-Glo
# Format: cell-based, human
# Settings: 72 hours
# How it was run: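 GI50 values come from four-parameter curve fits of luminescence data normalized to a zero baseline. Compound, in medium with 0.5% DMSO, was added one day after plating and left for 72 h before CellTiter-Glo 2.0 addition.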
row,GI50,Structure (SMILES)
1,< 500 nM,CCS(=O)(=O)Nc1ccc(Oc2cccc(OC3CC(C4CCN(c5ncc(C(=O)N[C@H]6C(C)(C)[C@H](Oc7ccc(C#N)c(Cl)c7)C6(C)C)cn5)CC4)C3)c2)c(-c2cn(C)c(=O)c3[nH]ccc23)c1 (stereo partly shown) [Compound I-104]
2,< 500 nM,CCS(=O)(=O)Nc1ccc(Oc2cccc(N3CC(CC4CN(c5ncc(C(=O)N[C@H]6C(C)(C)[C@H](Oc7ccc(C#N)c(Cl)c7)C6(C)C)cn5)C4)C3)c2)c(-c2cn(C)c(=O)c3[nH]ccc23)c1 [Compound I-158]
3,1500 to 3000 nM,Cn1cc(-c2cc(C(C)(C)O)ccc2Oc2ccc(N3CC4(C3)CN(c3ncc(C(=O)N[C@H]5C(C)(C)[C@H](Oc6ccc(C#N)c(Cl)c6)C5(C)C)cn3)CCO4)cc2)c2cc[nH]c2c1=O [Compound I-212]
4,< 500 nM,CCS(=O)(=O)c1ccc(Oc2cccc(OCCN3CCN(c4ncc5c(n4)CN([C@H]4C(C)(C)[C@H](Oc6ccc(C#N)c(Cl)c6)C4(C)C)C5=O)CC3)c2F)c(-c2cn(C)c(=O)c3[nH]ccc23)c1 [Compound I-217]
5,< 500 nM,CN(C1CN(c2ccc(Oc3ccc(C(C)(C)O)cc3-c3cn(C)c(=O)c4[nH]ccc34)cc2)C1)C1CN(c2ncc(C(=O)N[C@H]3C(C)(C)[C@H](Oc4ccc(C#N)c(Cl)c4)C3(C)C)cn2)C1 [Compound I-238]
6,< 500 nM,CN(CC1CCN(c2ncc(C(=O)N[C@H]3C(C)(C)[C@H](Oc4ccc(C#N)c(Cl)c4)C3(C)C)cn2)CC1)C1(c2ccc(Oc3ccc(C(C)(C)O)cc3-c3cn(C)c(=O)c4[nH]ccc34)cc2)COC1 [Compound I-255]

# Same assay, conditions: Homo sapiens, 72 hours
row,Structure (SMILES),GI50
1,Cn1cc(-c2cc(C(C)(C)O)ccc2Oc2ccc(CC3CCN(c4ncc(C(=O)N[C@H]5C(C)(C)[C@H](Oc6ccc(C#N)c(Cl)c6)C5(C)C)cn4)CC3)cc2)c2cc[nH]c2c1=O [Compound I-201],500 to 1500 nM
2,Cn1cc(-c2cc(C(C)(C)O)ccc2Oc2ccc(OCC3CCN(c4ncc(C(=O)N[C@H]5C(C)(C)[C@H](Oc6ccc(C#N)c(Cl)c6)C5(C)C)cn4)CC3)cc2)c2cc[nH]c2c1=O [Compound I-202],500 to 1500 nM
3,CN(C1CCN(c2ncc(C(=O)N[C@H]3C(C)(C)[C@H](Oc4ccc(C#N)c(Cl)c4)C3(C)C)cn2)CC1)C1CN(c2ccc(Oc3ccc(C(C)(C)O)cc3-c3cn(C)c(=O)c4[nH]ccc34)cc2)C1 [Compound I-208],500 to 1500 nM
4,CCS(=O)(=O)c1ccc(Oc2ccc(OCC3CCN(c4ncc5c(n4)CN([C@H]4C(C)(C)[C@H](Cc6ccc(C#N)c(Cl)c6)C4(C)C)C5=O)CC3)cc2)c(-c2cn(C)c(=O)c3[nH]ccc23)c1 [Compound I-220],> 3000 nM
5,CC(C)N(C1CCN(c2ncc(C(=O)N[C@H]3C(C)(C)[C@H](Oc4ccc(C#N)c(Cl)c4)C3(C)C)cn2)CC1)C1CN(c2cccc(Oc3ccc(C(C)(C)O)cc3-c3cn(C)c(=O)c4[nH]ccc34)c2F)C1 [Compound I-221],> 3000 nM
6,Cn1cc(-c2cc(C(C)(C)O)ccc2Oc2ccc(N3CC(CC4CCN(c5ncc(C(=O)N[C@H]6C(C)(C)[C@H](Oc7ccc(C#N)c(Cl)c7)C6(C)C)cn5)CC4)C3)cc2)c2cc[nH]c2c1=O [Compound I-232],500 to 1500 nM

# Results, then the compound that gave them:
row,GI50,Structure (SMILES)
1,< 500 nM,CCS(=O)(=O)Nc1ccc(Oc2cccc(CCOC3CCN(c4ncc(C(=O)N[C@H]5C(C)(C)[C@H](Oc6ccc(C#N)c(Cl)c6)C5(C)C)cn4)CC3)c2)c(-c2cn(C)c(=O)c3[nH]ccc23)c1 [Compound I-19]
2,< 500 nM,"CCS(=O)(=O)Nc1ccc(Oc2cccc(N3CC4(CN(CC5CCN(c6ncc(C(=O)N[C@H]7C(C)(C)[C@H](Oc8ccc(C#N)c(Cl)c8)C7(C)C)cn6)CC5)C4)C3)c2)c(-c2cn(C)c(=O)c3[nH]ccc23)c1 [Compound I-35, N-((1r, 3r)-3-(3-chloro-4-cyanophenoxy)-2,2,4,4-tetramethylcyclobutyl)-2-(4-((6-(3-(4-(ethylsulfonamido)-2-(6-methyl-7-oxo-6,7-dihydro-1H-pyrrolo[2,3-c]pyridin-4-yl)phenoxy)phenyl)-2,6-diazaspiro[3.3]heptan-2-yl)methyl)piperidin-1-yl)pyrimidine-5-carboxamide]"
3,< 500 nM,CCS(=O)(=O)Nc1ccc(Oc2cccc(OC3CCC4(CC3)CCN(c3ncc(C(=O)N[C@H]5C(C)(C)[C@H](Oc6ccc(C#N)c(Cl)c6)C5(C)C)cn3)CC4)c2)c(-c2cn(C)c(=O)c3[nH]ccc23)c1 [Compound I-45]
4,< 500 nM,"CCS(=O)(=O)Nc1ccc(Oc2cccc(OCCOC3CCN(c4ccc(C(=O)N[C@H]5C(C)(C)[C@H](Oc6ccc(C#N)c(Cl)c6)C5(C)C)cn4)CC3)c2)c(-c2cn(C)c(=O)c3[nH]ccc23)c1 [Compound I-70, N-((1r, 3r)-3-(3-chloro-4-cyanophenoxy)-2,2,4,4-tetramethylcyclobutyl)-6-(4-(2-(3-(4-(ethylsulfonamido)-2-(6-methyl-7-oxo-6,7-dihydro-1H-pyrrolo[2,3-c]pyridin-4-yl)phenoxy)phenoxy)ethoxy)piperidin-1-yl)nicotinamide]"
5,< 500 nM,"CCS(=O)(=O)Nc1ccc(Oc2cccc(OCCOC3CCN(c4cnc(C(=O)N[C@H]5C(C)(C)[C@H](Oc6ccc(C#N)c(Cl)c6)C5(C)C)cn4)CC3)c2)c(-c2cn(C)c(=O)c3[nH]ccc23)c1 [Compound I-71, N-((1r, 3r)-3-(3-chloro-4-cyanophenoxy)-2,2,4,4-tetramethylcyclobutyl)-5-(4-(2-(3-(4-(ethylsulfonamido)-2-(6-methyl-7-oxo-6,7-dihydro-1H-pyrrolo[2,3-c]pyridin-4-yl)phenoxy)phenoxy)ethoxy)piperidin-1-yl)pyrazine-2-carboxamide]"
6,< 500 nM,Cn1cc(-c2cc(N)ccc2Oc2cccc(N3CC(N4CCN(c5ncc(C(=O)N[C@H]6C(C)(C)[C@H](Oc7ccc(C#N)c(Cl)c7)C6(C)C)cn5)CC4)C3)c2F)c2cc[nH]c2c1=O [Compound I-93]
7,< 500 nM,Cn1cc(-c2cc(N)ccc2Oc2cccc(OCCN3CCN(c4ncc(C(=O)N[C@H]5C(C)(C)[C@H](Oc6ccc(C#N)c(Cl)c6)C5(C)C)cn4)CC3)c2F)c2cc[nH]c2c1=O [Compound I-100]
8,< 500 nM,Cn1cc(-c2cc(N)ccc2Oc2cccc(OCCC3CCN(c4ncc(C(=O)N[C@H]5C(C)(C)[C@H](Oc6ccc(C#N)c(Cl)c6)C5(C)C)cn4)CC3)c2)c2cc[nH]c2c1=O [Compound I-101]
9,< 500 nM,CCS(=O)(=O)N(C)c1ccc(Oc2cccc(N3CCN(C4CN(c5ncc(C(=O)N[C@H]6C(C)(C)[C@H](Oc7ccc(C#N)c(Cl)c7)C6(C)C)cn5)C4)CC3)c2)c(-c2cn(C)c(=O)c3[nH]ccc23)c1 [Compound I-118]
10,< 500 nM,CCS(=O)(=O)Nc1ccc(Oc2cccc(CCN3CC4CN(c5ncc(C(=O)N[C@H]6C(C)(C)[C@H](Oc7ccc(C#N)c(Cl)c7)C6(C)C)cn5)CC4C3)c2)c(-c2cn(C)c(=O)c3[nH]ccc23)c1 (stereo partly shown) [Compound I-119]
11,< 500 nM,CCS(=O)(=O)Nc1ccc(Oc2cccc(N3CC(N(C)C4CN(c5ncc(C(=O)N[C@H]6C(C)(C)[C@H](Oc7ccc(C#N)c(Cl)c7)C6(C)C)cn5)C4)C3)c2)c(-c2cn(C)c(=O)c3[nH]ccc23)c1 [Compound I-120]
12,< 500 nM,Cn1cc(-c2cc(C(C)(C)O)ccc2Oc2ccc(OCCN3CCN(c4ncc(C(=O)N[C@H]5C(C)(C)[C@H](Oc6ccc(C#N)c(Cl)c6)C5(C)C)cn4)CC3)cc2)c2cc[nH]c2c1=O [Compound I-204]
13,< 500 nM,Cn1cc(-c2cc(C(C)(C)O)ccc2Oc2cccc(N3CC4(CN(c5ncc(C(=O)N[C@H]6C(C)(C)[C@H](Oc7ccc(C#N)c(Cl)c7)C6(C)C)cn5)CCO4)C3)c2F)c2cc[nH]c2c1=O [Compound I-216]
14,< 500 nM,Cn1cc(-c2cc(C(C)(C)O)ccc2Oc2ccc(N3CC(OC4CCN(c5ncc(C(=O)N[C@H]6C(C)(C)[C@H](Oc7ccc(C#N)c(Cl)c7)C6(C)C)cn5)CC4)C3)cc2)c2cc[nH]c2c1=O [Compound I-219]
15,< 500 nM,Cn1cc(-c2cc(C(C)(C)O)ccc2Oc2ccc(CCCC3CC4(C3)CN(c3ncc(C(=O)N[C@H]5C(C)(C)[C@H](Oc6ccc(C#N)c(Cl)c6)C5(C)C)cn3)C4)cc2)c2cc[nH]c2c1=O [Compound I-268]
16,< 500 nM,Cn1cc(-c2cc(C(C)(C)O)ccc2Oc2ccc(N3CC(CC4CN(c5ncc(C(=O)N[C@H]6C(C)(C)[C@H](Oc7ccc(C#N)c(Cl)c7)C6(C)C)cn5)C4)C3)cc2)c2cc[nH]c2c1=O [Compound I-280]
